Molecular target: T1, HpDnaK (Hsp70) (Helicobacter pylori, UniProt P55994)
T1 construct: gene dnaK; overexpressed and purified full-length protein; native protein in cells for CETSA
T1 sequence (P55994 2-620): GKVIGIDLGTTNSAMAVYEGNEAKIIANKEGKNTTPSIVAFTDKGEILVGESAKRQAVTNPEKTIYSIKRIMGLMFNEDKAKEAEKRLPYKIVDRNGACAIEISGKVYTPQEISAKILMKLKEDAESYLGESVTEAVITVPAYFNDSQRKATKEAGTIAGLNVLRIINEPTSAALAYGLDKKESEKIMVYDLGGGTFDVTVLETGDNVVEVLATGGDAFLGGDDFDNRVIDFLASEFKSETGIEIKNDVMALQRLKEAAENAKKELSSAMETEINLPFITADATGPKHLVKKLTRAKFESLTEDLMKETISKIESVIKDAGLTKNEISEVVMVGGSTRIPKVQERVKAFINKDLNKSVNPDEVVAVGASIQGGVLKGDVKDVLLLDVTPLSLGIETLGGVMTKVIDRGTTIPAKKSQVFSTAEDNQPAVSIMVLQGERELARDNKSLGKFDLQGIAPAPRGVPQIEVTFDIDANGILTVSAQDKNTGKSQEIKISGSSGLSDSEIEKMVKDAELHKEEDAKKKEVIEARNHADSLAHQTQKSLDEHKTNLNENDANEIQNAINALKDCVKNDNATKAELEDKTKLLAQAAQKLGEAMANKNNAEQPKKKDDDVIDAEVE
Assay: ATPase assay, released phosphate
Format: biochemical
Details: no CBS; rate linear within 80 min

Nc1ncnc2c1ncn2[C@@H]1O[C@H](COP(=O)(O)OP(=O)(O)OP(=O)(O)O)[C@@H](O)[C@H]1O [ATP]
ATPase assay, released phosphate: rates of ATP hydrolysis measured by monitoring the amounts of released free phosphate

From article PMC5471454, “Integrative approach for the analysis of the proteome-wide response to bismuth drugs in Helicobacter pylori” (Chemical Science, 2017)
